# Reference: patent publication US6391907B1, “Indoline derivatives” (American Home Products Corporation, priority 1999, dated 2002)
row,Structure (SMILES),melting point
1,"O=C1Nc2ccc(-c3cccc(Cl)c3)cc2C12OCCO2 [Example 11, 5′-(3-Chlorophenyl)spiro[1,3-dioxolane-2,3′-[3H]indol]-2′(1′H)-one]",159 to 161 °C
2,"O=C1Nc2ccc(-c3cccc([N+](=O)[O-])c3)cc2C12CCCC2 [Example 13, 5′-(3-nitrophenyl)spiro[cyclopentane-1,3′-[3H]indol]2′(1′H)-one]",238 to 240 °C
3,"O=C1Nc2ccc(-c3cccc4[nH]ccc34)cc2C12CCCCC2 [Example 46, 5′-(1H-Indol-4-yl)spiro[cyclohexane-1,3′-[3H]indol]-2′(1′H)-one]",211 to 213 °C
4,"CC1(C)C(=O)Nc2ccc(-c3cc(F)cc(Cl)c3)cc21 [Example 70, 5-(3-Chloro-5-fluoro-phenyl)-3,3-dimethyl-1,3-dihydro-indol-2-one]",205.9 to 206.8 °C
5,"O=C1Nc2ccc(-c3cccc(F)c3)cc2C12CCCCC2 [Example 21, 5′-(3-Fluorophenyl)spiro[cyclohexane-1,3′-[3H]indol]-2′(1′H)-one]",171 to 172 °C
6,"Cc1c(-c2ccc3c(c2)C2(CCCCC2)C(=O)N3)sc2ccc(Cl)cc12 [Example 58, 5′-(5-Chloro-3-methylbenzo[b]thien-2-yl)spiro[cyclo-hexane-1,3′-[3H]indol]-2′(1′H)-one]",256 to 258 °C
7,"CC1(C)C(=O)Nc2ccc(-c3cccc(C#N)c3)cc21 [Example 67, 3-(3,3-Dimethyl-2-oxo-2,3-dihydro-1H-indol-5-yl)-benzonitrile]",200.2 to 202 °C
8,"N#Cc1cc(F)cc(-c2cc([N+](=O)[O-])c3c(c2)C2(CCCCC2)C(=O)N3)c1 [Example 52, 3-(7′-Nitro-1′,2′-dihydro-2′-oxospiro[cyclohexane-1,3′-[3H]indol]-5′-yl)-5-fluoro-benzonitrile]",196 °C
9,"O=C1Cc2cc(-c3cccc([N+](=O)[O-])c3)ccc2N1 [Example 1, 5-(3-Nitro-phenyl)-1,3-dihydro-indol-2-one]",269 °C
10,"N#Cc1csc(-c2ccc3c(c2)C2(CCCCC2)C(=O)N3)c1 [Example 38, 5-(1′,2′-Dihydro-2′-oxospiro[cyclohexane-1,3′-[3H]indol]-5′-yl)-thiophene-3-carbonitrile]",188 to 190 °C
11,"CC1(C)C(=O)Nc2ccc(-c3coc(C#N)c3)cc21 [Example 72, 4-(3,3-Dimethyl-2-oxo-2,3-dihydro-1H-indol-5-yl)-furan-2-carbonitrile]",199.6 to 201.4 °C
12,"CC1(C)C(=O)Nc2ccc(-c3ccc([N+](=O)[O-])s3)cc21 [Example 83, 3,3-Dimethyl-5-(5-nitro-thiophene-2-yl)-1,3-dihydro-indol-2-one]",223 to 225 °C
13,"CC1(C)C(=O)Nc2ccc(-c3cc(F)cc([N+](=O)[O-])c3)cc21 [Example 71, 5-(3-Fluoro-5-nitro-phenyl)-3,3-dimethyl-1,3-dihydro-indol-2-one]",231.2 to 232.7 °C
14,"N#Cc1ccc(-c2ccc3c(c2)C2(CCCCC2)C(=O)N3)cc1F [Example 63, 5′-(4-Cyano-3-fluorophenyl)-spiro[cyclohexane-1,3′-[3H]indol]-2′(1′H)-one]",258 to 260 °C
15,"O=C1Nc2ccc(-c3ccc(F)c(Cl)c3)cc2C12CCCCC2 [Example 20, 5′-(3Chloro-4-fluorophenyl)spiro[cyclohexane-1,3′-[3H]indol]-2′(1′H)-one]",188 to 189 °C
16,"CCC1(CC)C(=O)Nc2ccc(-c3cccc(Cl)c3)cc21 [Example 7, 5-(3-Chloro-phenyl)-3,3-diethyl-1,3-dihydro-indol-2-one]",195 to 197 °C
17,"O=C1Nc2ccc(-c3cc(F)cc(F)c3)cc2C12CCCCC2 [Example 22, 5′-(3,5-Difluorophenyl)spiro[cyclohexane1,3′-[3H]indol]-2′(1′H)-one]",180 to 183 °C

row,Structure (SMILES),melting point
1,"CC1(C)C(=O)Nc2ccc(-c3ccc(C#N)s3)cc21 [Example 86, 5-(3,3-Dimethyl-2-oxo-2,3-dihydro-1H-indol-5-yl)-thiophene2-carbonitrile]",255 to 256 °C
2,"O=C1Nc2ccc(-c3ccc(F)c(Cl)c3)cc2C12CCCC2 [Example 76, 5′-(3-Chloro-4fluorophenyl)-spiro[cyclopentane-1,3′-[3H]indol]-2′(1′H)-one]",202 to 204 °C
3,"Cc1cc(C#N)sc1-c1ccc2c(c1)C(C)(C)C(=O)N2 [Example 69, 5(3,3-Dimethyl-2-oxo-2,3dihydro-1H-indol-5-yl)-4methyl thiophene-2-carbonitrile]",192.3 to 193 °C
4,"Cn1c(-c2ccc3c(c2)C2(CCCCC2)C(=O)N3)ccc1[N+](=O)[O-] [Example 45, 5′-(5-Nitro-1-methyl-pyrrol-2-yl)spiro[cyclohexane-1,3′-[3H]indol]-2′(1′H)-one]",210 °C
5,"N#Cc1cc(F)cc(-c2cc(N)c3c(c2)C2(CCCCC2)C(=O)N3)c1 [Example 53, 3-(7′-Amino-1′,2′-dihydro-2′-oxospiro[cyclohexane-1,3′-[3H]indol]-5′-yl)-5-fluoro-benzonitrile]",241 to 243 °C
6,"CC(C)(C)OC(=O)n1cccc1-c1ccc2c(c1)C(C)(C)C(=O)N2 [Example 84, 2-(3,3-Dimethyl-2-oxo-2,3-dihydro-1H-indol-5yl)-pyrrole-1-carboxylic acid tert-butyl ester]",168.4 to 170.2 °C
7,"N#Cc1cc(F)cc(-c2cc(Br)c3c(c2)C2(CCCCC2)C(=O)N3)c1 [Example 51, 3-(7′-Bromo-1′,2′-dihydro-2′-oxospiro[cyclohexane-1,3′-[3H]indol]-5′-yl)-5-fluoro-benzonitrile]",217 °C
8,"O=C1Nc2ccc(-c3cccc(Cl)c3)cc2C12OCCCO2 [Example 12, 5′-(3-Chlorophenyl)spiro[1,3-dioxane-2,3-[3H]indol]-2′(1′H)-one]",242 to 244 °C
9,"O=C1Cc2cc(-c3cccc(Cl)c3)ccc2N1 [Example 10, 5-(3-Chloro-phenyl)-1,3-dihydro-indol-2-one]",169 to 171 °C
10,"CCC1C(=O)Nc2ccc(-c3cccc(Cl)c3)cc21 (stereo not drawn) [Example 6, 5-(3-Chloro-phenyl)-3-ethyl-1,3dihydro-indol-2-one]",118 to 120 °C
11,"CC1(C)C(=O)Nc2ccc(C3([N+](=O)[O-])C=CC=N3)cc21 (stereo not drawn) [Example 85, 2-(3,3-Dimethyl-2-oxo-2,3-dihydro-1H-indol-5-yl)-2-nitro-pyrrole]",293.9 to 294.2 °C (dec.)
12,"O=C1Nc2ccc(-c3cc(F)cc(Cl)c3)cc2C12CCCCC2 [Example 27, 5′-(3-Chloro-5-fluorophenyl)spiro[cyclohexane-1,3′-[3H]indol]-2′(1′H)-one]",178 to 180 °C
13,N#Cc1cc(-c2ccc3c(c2)C2(CCCC2)C(=O)N3)ccc1F,264 to 266 °C
14,"O=C1Nc2ccc(-c3cccc([N+](=O)[O-])c3)cc2C12CCCCC2 [Example 30, 5′-(3-Nitrophenyl)spiro[cyclohexane-1,3′-[3H]indol]-2′(1′H)-one]",196 to 198 °C
15,"CC1(C)C(=O)Nc2ccc(-c3ccc(F)c(Cl)c3)cc21 [Example 66, 5-(3-Chloro-4-fluoro-phenyl)-3,3-dimethyl1,3-dihydro-indol-2-one]",206.5 to 207.8 °C
16,"CC1(C)C(=O)Nc2ccc(-c3cccc(C#N)c3F)cc21 [Example 87, 3(3,3-Dimethyl-2-oxo-2,3-dihydro-1H-indol-5-yl)-2-fluoro-benzonitrile]",270 to 272 °C
